{
  "source": "paper PMC9797592",
  "about": "“TJ-M2010-5, a novel CNS drug candidate, attenuates acute cerebral ischemia-reperfusion injury through the MyD88/NF-κB and ERK pathway” (Frontiers in Pharmacology, 2022)",
  "key": {"[1]": {"tested_on": "NF-κB p65", "assay": "NF-κB p65 nuclear translocation in LPS-stimulated BV-2 cells, immunofluorescence", "assay_type": "cell-based", "details": "12 h after LPS stimulation", "method": "BV-2 microglial and SH-SY5Y cells were cultured as previously described ([Zhao et al., 2020]). A lipopolysaccharide (LPS)-stimulated BV-2 cell model was established to mimic severe neuroinflammation induced by multiple inflammatory mediators after reperfusion ([Li et al., 2021]). BV-2 cells were pretreated with different concentrations of TJ-5 for 2 h before LPS (1 μg/ml) stimulation (#L2880, Sigma, United States). […] In addition, ST2825, a recognized MyD88 inhibitor, was used as positive control group.\nFor BV-2 cells immunofluorescence staining, the cells were fixed with 4% paraformaldehyde for 10 min and permeabilized with 0.5% Triton X-100 for 10 min. After blocking with goat serum, the cells were sequentially incubated with the primary antibody, secondary antibody, and Hoechst in sequence. Images were captured using a confocal microscope. The fluorescence intensity was analyzed using ImageJ software."}, "[2]": {"tested_on": "LPS-stimulated BV-2 cells", "assay": "LPS-stimulated BV-2 cell model: morphology and TNF-α/IL-6 ELISA", "assay_type": "cell-based", "method": "BV-2 microglial and SH-SY5Y cells were cultured as previously described ([Zhao et al., 2020]). A lipopolysaccharide (LPS)-stimulated BV-2 cell model was established to mimic severe neuroinflammation induced by multiple inflammatory mediators after reperfusion ([Li et al., 2021]). BV-2 cells were pretreated with different concentrations of TJ-5 for 2 h before LPS (1 μg/ml) stimulation (#L2880, Sigma, United States). Twenty-4 hours later, BV-2 cells and the culture supernatants were harvested for subsequent experiments. In addition, ST2825, a recognized MyD88 inhibitor, was used as positive control group.\n(§1) Enzyme-linked immunosorbent assay (ELISA) kits were used to detect the levels of TNF-α, IL-1β, and IL-6 in the brain. Brain tissue was homogenized in 1 ml of phosphate-buffered saline using a tissue homogenizer. Then, the homogenates were centrifuged at 14,000 g for 10 min at 4 °C. The supernatant was immediately transferred for measurement following the manufacturer’s instructions. BV-2 cells were incubated with different treatments and the supernatants were collected and measured."}, "[3]": {"tested_on": "OGD/R-stimulated BV-2 cells", "assay": "OGD/R-stimulated BV-2 cells: TNF-α/IL-6 ELISA", "assay_type": "cell-based", "method": "as §1"}, "[4]": {"tested_on": "OGD/R-induced SH-SY5Y cells", "assay": "OGD/R-induced SH-SY5Y cell apoptosis, Annexin V/PI flow cytometry", "assay_type": "cell-based", "details": "OGD 4 h / R 24 h with TJ-5", "method": "The oxygen glucose deprivation/reoxygenation (OGD/R)-induced SH-SY5Y cell model was established to mimic CIRI as previously described ([Dong et al., 2021]). Briefly, SH-SY5Y cells were cultured in glucose-free Dulbecco’s Modified Eagle Medium, and the flasks were placed inside an incubator (1% O2, 94% N2, 5% CO2) for 4 h. OGD cells were then incubated in standard culture conditions with or without TJ-5 for 24 h of reperfusion. OGD 4 h/R 24 h SH-SY5Y cells were harvested, and the Annexin V/PI Apoptosis Kit (Multi- Science Biotech, China) was used to detect apoptosis by flow cytometry."}, "[5]": {"tested_on": "SH-SY5Y cells", "assay": "CCK-8 cell viability assay, SH-SY5Y", "assay_type": "cell-based", "method": "BV-2 and SH-SY5Y cells were seeded in a 96-well plate at a density of 1 × 10^4 cells/well. Twenty-4 hours later, different concentrations of TJ-5 (0, 1, 5, 10, 20, and 30 μM) were added and co-cultured with cells for 24 h. Cell Counting Kit-8 (CCK8, Sigma, Shanghai, China) was used to measure cell viability. Experiments were conducted according to the manufacturer’s instructions. After incubation at 37°C for 2 h, absorbance was measured at 450 nm using a microplate reader (Synergy 2, BioTek Instruments, United States)."}, "[6]": {"tested_on": "CIRI mice", "assay": "RT-qPCR and ELISA of inflammatory factors in the brain of CIRI mice", "assay_type": "in vivo, C57BL/6 mice", "details": "TJ-5 15 mg/kg i.v. after 1 h ischemia", "method": "Total mRNA was extracted from the brain cortex using TRIzol reagent and reverse-transcribed into cDNA using the PrimeScript™ RT reagent kit (Takara, Japan), following the manufacturer’s instructions. RT-qPCR was performed using SYBR Green Real-time PCR Master Mix (Takara, Japan) with the Step One System (Life Technologies). The results were expressed as fold change from the untreated control and analyzed using the 2^−ΔΔCt method. The primers were as follows (5′–3′): MyD88 forward: TTTATCTGCTACTGCCCCAACG, reverse: GCGGCGACACCTTTTCTCA; TLR4 forward: ATGCTGCAACTGATGTTCCTTC, reverse: GATGTTAGACCTTTCTTCCTCCC; GAPDH forward: TGTTCCTACCCCCAATGTGTCC, reverse: GGAGTTGCTGTTGAAGTCGCAG; TNF-α forward: ATGGCCTCCCTCTCATCAGT, reverse: TGGTTTGCTACGACGTGGG; IL-6 forward: AGTGGCTAAGGACCAAGAC, reverse: ATAACGCACTAGGTTTGCCGA; iNOS forward: ATTCACAGCTCATCCGGTACG, reverse: GGATCTTGACCATCAGCTTGC; IL-1β forward: GCACTACAGGCTCCGAGATGAA, reverse: GTCGTTGCTTGGTTCTCCTTGT.\nEnzyme-linked immunosorbent assay (ELISA) kits were used to detect the levels of TNF-α, IL-1β, and IL-6 in the brain. Brain tissue was homogenized in 1 ml of phosphate-buffered saline using a tissue homogenizer. […] BV-2 cells were incubated with different treatments and the supernatants were collected and measured."}},
  "data": [
    {"smiles": "O=C(CCN1CCN(Cc2ccccc2)CC1)Nc1nc(-c2ccccc2)cs1", "note": "[TJ-5]", "values": [
      {"measurement": "LPS-induced NF-κB p65 nuclear translocation", "setting": "[1]", "result": "significantly prevented"},
      {"measurement": "levels of TNF-α and IL-6 in supernatants", "setting": "[2]; LPS-stimulated BV-2 cells, pretreatment 2 h, LPS 24 h, ELISA", "result": "markedly reduced"},
      {"measurement": "activation (morphology) of LPS-stimulated BV-2 cells", "setting": "[2]; pretreatment 2 h before LPS 1 μg/ml, 24 h", "result": "inhibited"},
      {"measurement": "levels of TNF-α and IL-6 in supernatants", "setting": "[3]", "result": "markedly reduced"},
      {"measurement": "apoptosis of OGD/R-induced SH-SY5Y cells", "setting": "[4]", "result": "significantly reduced apoptosis"},
      {"measurement": "neurotoxicity", "setting": "[5]; SH-SY5Y cells", "result": "no neurotoxicity"},
      {"measurement": "viability of SH-SY5Y cells", "setting": "[5]; concentrations below 20 μM, 24 h, CCK-8", "result": "did not affect the viability"},
      {"measurement": "iNOS (with TNF-α, IL-6, IL-1β) mRNA expression levels in the brain", "setting": "[6]; RT-qPCR", "result": "downregulated"},
      {"measurement": "expression of TNF-α, IL-1β, and IL-6 in the brain (mRNA and protein)", "setting": "[6]; RT-qPCR and ELISA", "result": "reduced"}
    ]}
  ]
}
